From patent US8927500B2, “Peptidomimetic macrocycles” (Aileron Therapeutics, Inc., priority 2012, dated 2015)
pIC50, pKi: −log10 of the molar value. Where a SMILES comes first, the peptide text is derived from it. Bridges are numbered along the chain shown (N, C = ends). [ ]: non-standard residue; d: D form. R8 = C=CCCCCCC[C@@](C)(N)C(=O)O; Cba = N[C@@H](CC1CCC1)C(=O)O; S5 = C=CCCC[C@](C)(N)C(=O)O

Experiments:
MDM2 = MDM2 (Homo sapiens, UniProt Q00987); assay: Competitive fluorescence polarization assay for MDM2; type: binding; settings: competitive FP assay, MDM2; for pIC50: read-out: IC50 (MDM2); for pKi: read-out: Ki (MDM2)
Chain of MDM2 (Q00987 1-125): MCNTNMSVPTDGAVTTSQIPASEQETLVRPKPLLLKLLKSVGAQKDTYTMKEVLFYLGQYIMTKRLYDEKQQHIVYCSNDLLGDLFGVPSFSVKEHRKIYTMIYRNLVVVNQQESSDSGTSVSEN

MDMX = biological target: T1, MDMX (Homo sapiens, UniProt O15151); assay: Competitive fluorescence polarization assay for MDMX; type: binding; settings: competitive FP assay; for pIC50: read-out: IC50 (MDMX); for pKi: read-out: Ki (MDMX)
T1 sequence (O15151 1-125): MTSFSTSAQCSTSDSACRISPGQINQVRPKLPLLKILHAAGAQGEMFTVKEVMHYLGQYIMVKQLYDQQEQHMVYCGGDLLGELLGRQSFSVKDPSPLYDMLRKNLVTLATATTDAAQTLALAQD

SJSA-1 cells = assay: Cell lysis by peptidomimetic macrocycles (LDH release); type: cell-based; settings: 1 h at 37C
Protocol: On the day of the assay, media was exchanged with RPMI 1% FBS media, 90 uL of media per well.
10 mM stock solutions of the peptidomimetic macrocycles were prepared in 100% DMSO.
The negative control (non-lytic) sample was 0.5% DMSO alone and positive control (lytic) samples include 10 uM Melittin and 1% Triton X-100.
Cell plates were incubated for 1 hour at 37C. After the 1 hour incubation, the morphology of the cells is examined by microscope and then the plates were centrifuged at 1200 rpm for 5 minutes at room temperature. 40 uL of supernatant for each peptidomimetic macrocycle and control sample is transferred to clear assay plates.

Caspase 3 = Caspase 3 detection assay in SJSA1 cells; type: cell-based; settings: 48 h, Caspase 3 activation over DMSO-treated cells

SMILES | pIC50 (MDM2) | pKi (MDM2) | pIC50 (MDMX) | pKi (MDMX) | 6.25 uM % Lysed cells (1 h LDH) (SJSA-1 cells) [%] | 25 uM % Lysed cells (1 h LDH) (SJSA-1 cells) [%] | 50 uM % Lysed cells (1 h LDH) (SJSA-1 cells) [%] | caspase 0.3 uM (Caspase 3; 0.3 uM peptide) | caspase 3 uM (Caspase 3; 3 uM peptide) | caspase 10 uM (Caspase 3; 10 uM peptide) | caspase 30 uM (Caspase 3; 30 uM peptide)
CCCC[C@H](NC(=O)[C@H](C)NC(=O)[C@H](C)NC(=O)[C@]1(C)CCCC=CCCCCCC[C@@](C)(NC(=O)[C@H](Cc2ccccc2)NC(=O)[C@@H](NC(=O)[C@H](CC(C)C)NC(C)=O)[C@@H](C)O)C(=O)N[C@@H](C)C(=O)N[C@@H](Cc2ccc(O)cc2)C(=O)N[C@@H](Cc2c[nH]c3ccccc23)C(=O)N[C@@H](C)C(=O)N[C@@H](CCC(N)=O)C(=O)N[C@@H](CC(C)C)C(=O)N1)C(=O)N[C@H](C)C(N)=O (single isomer, unassigned) [compound 75] | 7.00 to 8.00 | > 8.00 | 6.00 to 7.00 | 7.00 to 8.00 | −1 | 1 | 1 | – | – | – | –
CC[C@H](C)[C@H](NC(=O)[C@H](C)NC(=O)[C@H](C)NC(=O)[C@]1(C)CCCC=CCCCCCC[C@@](C)(NC(=O)[C@H](Cc2ccccc2)NC(=O)[C@@H](NC(=O)[C@H](CC(C)C)NC(C)=O)[C@@H](C)O)C(=O)N[C@@H](C)C(=O)N[C@@H](Cc2ccc(O)cc2)C(=O)N[C@@H](Cc2c[nH]c3ccccc23)C(=O)N[C@@H](C)C(=O)N[C@@H](CCC(N)=O)C(=O)N[C@@H](CC(C)C)C(=O)N1)C(=O)N[C@H](CC(C)C)C(N)=O (single isomer, unassigned) [compound 82] | – | – | – | – | 0 | 0 | 1 | – | – | – | –
CC(=O)N[C@@H](CC(C)C)C(=O)N[C@H](C(=O)N[C@@H](Cc1ccccc1)C(=O)N[C@]1(C)CCCCCCC=CCCC[C@@](C)(C(=O)N[C@@H](C)C(=O)N[C@H](C(=O)NCC(N)=O)C(C)C)NC(=O)[C@H](CC(C)C)NC(=O)[C@H](CCC(N)=O)NC(=O)[C@H](C)NC(=O)[C@H](Cc2c[nH]c3ccccc23)NC(=O)[C@H](Cc2ccc(O)cc2)NC(=O)[C@H](C)NC1=O)[C@@H](C)O (single isomer, unassigned) [compound 108] | – | – | – | – | 0 | 0 | 1 | – | – | – | –
CC(=O)N[C@@H](CC(C)C)C(=O)N[C@H](C(=O)N[C@@H](Cc1ccccc1)C(=O)N[C@]1(C)CCCCCCC=CCCC[C@@](C)(C(=O)N[C@@H](CO)C(=O)N[C@@H](C)C(=O)N[C@@H](C)C(N)=O)NC(=O)[C@H](C2CCCC2)NC(=O)[C@H](CCC(N)=O)NC(=O)[C@H](C)NC(=O)[C@H](Cc2c[nH]c3ccccc23)NC(=O)[C@H](Cc2ccc(O)cc2)NC(=O)[C@H](CCC(=O)O)NC1=O)[C@@H](C)O (single isomer, unassigned) [compound 150] | – | – | 6.00 to 7.00 | 7.00 to 8.00 | −1 | 0 | 2 | – | – | – | –
CC(=O)N[C@@H](CC(C)C)C(=O)N[C@H](C(=O)N[C@@H](Cc1ccccc1)C(=O)N[C@]1(C)CCCCCCC=CCCC[C@@](C)(C(=O)N[C@@H](CO)C(=O)N[C@@H](C)C(=O)N[C@@H](C)C(N)=O)NC(=O)[C@H](CC(C)C)NC(=O)[C@H](CCC(N)=O)NC(=O)[C@H](C)NC(=O)[C@H](Cc2c[nH]c3ccccc23)NC(=O)[C@H](Cc2ccc(C(=O)O)cc2)NC(=O)[C@H](C)NC1=O)[C@@H](C)O (single isomer, unassigned) [compound 169] | > 8.00 | > 8.00 | 7.00 to 8.00 | 7.00 to 8.00 | 2 | 3 | 7 | – | – | – | –
CC[C@H](C)[C@H](NC(=O)[C@H](C)NC(=O)[C@H](C)NC(=O)[C@]1(C)CCCC=CCCCCCC[C@@](C)(NC(=O)[C@H](Cc2ccccc2)NC(=O)[C@@H](NC(=O)[C@H](CCC(=O)O)NC(C)=O)[C@@H](C)O)C(=O)N[C@@H](CCC(=O)O)C(=O)N[C@@H](Cc2c[nH]cn2)C(=O)N[C@@H](Cc2c[nH]c3ccccc23)C(=O)N[C@@H](C)C(=O)N[C@@H](CCC(N)=O)C(=O)N[C@@H](CC(C)C)C(=O)N1)C(=O)N[C@H](C)C(N)=O (single isomer, unassigned) [compound 174] | – | – | – | – | 5 | 2 | 5 | – | – | – | –
CC[C@H](C)[C@H](NC(=O)[C@H](C)NC(=O)[C@H](C)NC(=O)[C@]1(C)CCCC=CCCCCCC[C@@](C)(NC(=O)[C@H](Cc2ccccc2)NC(=O)[C@@H](NC(=O)[C@H](CC(C)C)NC(C)=O)[C@@H](C)O)C(=O)N[C@@H](CCC(=O)O)C(=O)N[C@@H](Cc2ccc(C(=O)O)cc2)C(=O)N[C@@H](Cc2c[nH]c3cc(Cl)ccc23)C(=O)N[C@@H](C)C(=O)N[C@@H](CCC(N)=O)C(=O)N[C@@H](CC2CCC2)C(=O)N1)C(=O)N[C@H](C)C(N)=O (single isomer, unassigned) [compound 335] | – | – | – | – | 0 | 0 | 1 | – | – | – | –
CC(=O)N[C@@H](CCC(=O)O)C(=O)N[C@H](C(=O)N[C@@H](Cc1ccccc1)C(=O)N[C@]1(C)CCCCCCC=CCCC[C@@](C)(C(=O)N[C@@H](C)C(=O)N[C@@H](C)C(=O)N[C@@H](C)C(=O)N[C@@H](C)C(=O)N[C@@H](C)C(=O)N[C@H](C)C(N)=O)NC(=O)[C@H](CC(C)C)NC(=O)[C@H](CCC(N)=O)NC(=O)[C@H](C)NC(=O)[C@H](Cc2c[nH]c3ccccc23)NC(=O)[C@H](Cc2ccc(O)cc2)NC(=O)[C@H](CCC(=O)O)NC1=O)[C@@H](C)O (single isomer, unassigned) [compound 340] | – | – | – | – | 0 | 0 | 0 | – | – | – | –
CC(=O)N[C@@H](CC(C)C)C(=O)N[C@H](C(=O)N[C@@H](Cc1ccccc1)C(=O)N[C@]1(C)CCCCCCC=CCCC[C@@](C)(C(=O)N[C@@H](C)C(=O)N[C@@H](Cc2c[nH]cn2)C(=O)N[C@@H](Cc2ccccc2)C(=O)N[C@@H](C)C(N)=O)NC(=O)[C@H](CC(C)C)NC(=O)[C@H](CCC(N)=O)NC(=O)[C@H](C(C)C)NC(=O)[C@H](Cc2c[nH]c3ccccc23)NC(=O)[C@H](Cc2c[nH]cn2)NC(=O)[C@H](C)NC1=O)[C@@H](C)O [compound 190] (Ac-LTF[R8]AHWVQL[S5]AHFA-NH2; staple 4-11) | – | – | – | – | −1 | 0 | 1 | – | – | – | –
CC(=O)N[C@@H](CC(C)C)C(=O)N[C@H](C(=O)N[C@@H](Cc1ccccc1)C(=O)N[C@]1(C)CCCCCCC=CCCC[C@@](C)(C(=O)N[C@@H](CO)C(=O)N[C@@H](C)C(=O)N[C@@H](Cc2ccccc2)C(=O)N[C@@H](C)C(N)=O)NC(=O)[C@H](CC2CCC2)NC(=O)[C@H](CCC(N)=O)NC(=O)[C@H](C)NC(=O)[C@H](Cc2c[nH]c3ccccc23)NC(=O)[C@H](Cc2ccc(O)cc2)NC(=O)[C@H](CCC(=O)O)NC1=O)[C@@H](C)O [compound 242] (Ac-LTF[R8]EYWAQ[Cba][S5]SAFA-NH2; staple 4-11) | 7.00 to 8.00 | > 8.00 | 6.00 to 7.00 | 7.00 to 8.00 | – | – | – | 1 | 4 | 5 | 18
CC(C)CC[C@@H]1NC(=O)[C@H](CCC(N)=O)NC(=O)[C@H](C)NC(=O)[C@H](Cc2c[nH]c3ccccc23)NC(=O)[C@H](Cc2ccc(O)cc2)NC(=O)[C@H](CCC(=O)O)NC(=O)[C@](C)(NC(=O)[C@H](Cc2ccccc2)NC(=O)[C@@H](NC(=O)[C@H](CC(C)C)NC(=O)CN(C)C)[C@@H](C)O)CCCCCCC=CCCC[C@@](C)(C(=O)N[C@@H](CO)C(=O)N[C@@H](C)C(=O)N[C@@H](C)C(N)=O)NC1=O [compound 279] | – | – | 7.00 to 8.00 | 7.00 to 8.00 | 6 | 5 | 6 | – | – | – | –
CCCCCC(=O)N[C@@H](CC(C)C)C(=O)N[C@H](C(=O)N[C@@H](Cc1ccccc1)C(=O)N[C@]1(C)CCCCCCC=CCCC[C@@](C)(C(=O)N[C@@H](CO)C(=O)N[C@@H](C)C(=O)N[C@@H](C)C(N)=O)NC(=O)[C@H](CCC(C)C)NC(=O)[C@H](CCC(N)=O)NC(=O)[C@H](C)NC(=O)[C@H](Cc2c[nH]c3ccccc23)NC(=O)[C@H](Cc2ccc(O)cc2)NC(=O)[C@H](CCC(=O)O)NC1=O)[C@@H](C)O [compound 280] | – | – | 6.00 to 7.00 | 7.00 to 8.00 | 5 | 6 | 18 | – | – | – | –
CC(C)CC[C@@H]1NC(=O)[C@H](CCC(N)=O)NC(=O)[C@H](C)NC(=O)[C@H](Cc2c[nH]c3ccccc23)NC(=O)[C@H](Cc2ccc(O)cc2)NC(=O)[C@H](CCC(=O)O)NC(=O)[C@](C)(NC(=O)[C@H](Cc2ccccc2)NC(=O)[C@@H](NC(=O)[C@H](CC(C)C)NC(=O)C(C)(C)C)[C@@H](C)O)CCCCCCC=CCCC[C@@](C)(C(=O)N[C@@H](CO)C(=O)N[C@@H](C)C(=O)N[C@@H](C)C(N)=O)NC1=O [compound 284] | – | – | 6.00 to 7.00 | 7.00 to 8.00 | 5 | 5 | 6 | – | – | – | –
CCCC[C@H](NC(=O)[C@H](C)NC(=O)[C@H](C)NC(=O)[C@]1(C)CCCC=CCCCCCC[C@@](C)(NC(=O)[C@H](Cc2ccccc2)NC(=O)[C@@H](NC(=O)[C@H](CC(C)C)NC(C)=O)[C@@H](C)O)C(=O)N[C@@H](C)C(=O)N[C@@H](Cc2ccc(O)cc2)C(=O)N[C@@H](Cc2c[nH]c3ccccc23)C(=O)N[C@@H](Cc2cc(=O)oc3cc(OC)c(OC)cc23)C(=O)N[C@@H](CCC(N)=O)C(=O)N[C@@H](CC(C)C)C(=O)N1)C(=O)N[C@@H](C)C(N)=O [compound 415] | – | – | – | – | 4 | 2 | 2 | – | – | – | –
